One assay concerns the target T1, cathepsin B (Homo sapiens, UniProt P07858).
T1 construct: purchased Merck Biosciences Ltd. (Nottingham, UK)
Description: Cathepsin B counter-screen. As to conditions: highest concentration tested. It is filed as biochemical. The method, then:
(§1) Active recombinant caspase-1, -3, -4, -7 and -8 were prepared as described previously. Caspase-2 was purchased from Biomol (Exeter, UK), caspase-6 from BD Biosciences (Oxford, UK), caspase-9 from Europa Bioproducts Ltd. (Cambridge, UK) and caspase-10 from Chemicon International Inc. (Harrow, UK). Cathepsin B and granzyme B were purchased from Merck Biosciences Ltd. (Nottingham, UK). Fluorogenic protease substrates were purchased from Bachem Ltd. (St. Helens, UK). All reactions were carried out at 37°C using a Molecular Devices (Wokingham, UK) Gemini plate-reader at 460 nm (excitation wavelength of 390 nm). Caspase inhibition assays were conducted, with minor modifications, as described by Margolin and colleagues. Irreversible kinetics were analysed by calculations of second-order inactivation rate constants (k) using GraphPad (La Jolla, CA, USA) Prism 4.0 software. A larger number for an inactivation rate constant indicates a greater degree of inactivation. To determine the inhibitory effect on cathepsin B, 4.25 nM of the enzyme were added to 250 μM z-RR-AMC in 10 mM 2-morpholino-ethanesulfonic acid pH 6.0, 1 mM DTT, 1 mM EDTA and 0.03% Brij35 in the presence or absence of VX-166 and the reaction monitored continuously over 15 minutes. Granzyme B was assayed, with minor modifications, as described by Thornberry and colleagues. […]
On the technique in general: Counterscreens check selectivity or assay interference.

The test system of another assay is IL-1β. In words: CLP rat, plasma IL-1β by ELISA. The class given is in vivo. The note with it: 20 hours, 25 mg/ml pump, n = 10, P < 0.05. The method, then: CLP studies were performed in accordance with the National Institutes of Health guidelines for the use of experimental animals and were approved by the Institutional Animal Care and Use Committee of the Feinstein Institute for Medical Research. Adult male Sprague-Dawley rats (weighing 275 to 325 g, Charles River Laboratories, Wilmington, MA, USA) were fasted overnight then anaesthetised with isoflurane. The caecum was exposed via a 2 cm midline incision. It was ligated just distal to the ileocaecal valve, then punctured twice with an 18-gauge needle and gently squeezed to release a small amount of faecal material to ensure patency of the perforation sites before the abdominal incision was closed. Sham-operated rats underwent the same procedure with the exception that the caecum was neither ligated nor punctured. […]
Blood samples were centrifuged at 1500 g for 15 minutes at 4°C, the plasma was removed and stored at -80°C until analysis. Plasma IL-1β levels were determined by ELISA (R&D Systems Inc., Minneapolis, MN, USA) following the manufacturer's instructions. Plasma endotoxin levels were determined using a Limulus amebocyte lysate (LAL) kit (Associates of Cape Cod, Inc., East Falmouth, MA, USA) according to the manufacturer's instruction. […] The optical density was determined at 405 nm using a spectrophotometer. The levels of endotoxin were then calculated and expressed as EU/ml.

A short description of assay [1]: Counterscreening panel (MDS Pharma Services). The note with it: 5 μM, data not shown. The method, then:
as §1

A further assay relates to Jurkat cells. In words: Anti-Fas induced apoptosis in Jurkat cells, Annexin V. The note with it: Anti-Fas, Human Jurkat cell line/Annexin V, 18 hours, n = 4; read-out: IC50, inhibition of apoptosis. It is filed as cell-based, human. How it is done:
Jurkat cells were obtained from LGC Standards (Teddington, UK) and were grown in RPMI 1640, 10% FCS, 2 mM L-glutamine, 100 U/ml penicillin and 0.1 mg/ml streptomycin (all from Sigma Aldrich Ltd., Poole, UK) at 37°C in 5% CO2/95% humidity. Receptor- or stress-mediated apoptosis (2 × 10^5 cells/ml) was induced by addition of either anti-Fas antibody CH-11 (10 ng/ml, Millipore UK Ltd., Watford, UK), TNF-α (20 ng/ml, R&D Systems, Abingdon, UK) with cycloheximide (112 ng/ml, Sigma Aldrich Ltd., Poole, UK) or staurosporine (350 ng/ml, Sigma Aldrich Ltd., Poole, UK). VX-166 was diluted into DMSO (10 mM), further diluted in media and added at a range of concentrations. Cells were then incubated for 18 hours. Apoptotic cells were then labelled with Cy5-conjugated Annexin-V (BD Biosciences, Oxford, UK) and detected using a FMAT™ 8100 Fluorimetric Microassay Technology Reader (Applied Biosystems, Warrington, UK). For the experiments using anti-Fas antibody, apoptosis was additionally measured using a Cell Death Detection ELISA kit (Roche Diagnostics Ltd., Lewes, UK) following the manufacturer's instructions.

By inhibition is commonly meant the drop in the measured response relative to a control, in per cent. Higher therefore signals strong suppression. One may read the IC50 as the concentration that inhibits the measured activity by half. Take `CCC(C(=O)NC(CC(=O)O)C(=O)COc1c(F)c(F)cc(F)c1F)n1cccc(NC(=O)OC)c1=O` (stereo not shown) [VX-166]: 50 µM produced 19% inhibition against cathepsin B. Further, in the assay with IL-1β, the “plasma IL-1β level vs vehicle CLP” value was “significant reduction”. In addition, the “cross-reactivity in panel of 83 enzymes, ion channels and receptors (28 proteases)” value in assay [1] was “No significant cross-reactivity”. Besides, the IC50 in the assay with Jurkat cells is 27 ± 9 nM.

(Values after paper PMC2784364, “VX-166: a novel potent small molecule caspase inhibitor as a potential therapy for sepsis” (Critical Care, 2009).)
